Results: patent US20130237582A1, “PHARMACEUTICAL COMBINATION OF PACLITAXEL AND A CDK INHIBITOR” (Piramal Enterprises Limited, priority 2010, published 2013)

Test system: MDA-MB-468
Assay: Cell cycle progression and apoptosis by flow cytometry (sub-G1)
Assay type: cell-based, human
Method: Before analysis, cells were washed twice with PBS to remove the fixative and re-suspended in PBS containing 50 μg/mL propidium iodide and 50 μg/mL RNaseA. After incubation at room temperature (20-35° C.) for 20 min, cells were analyzed using flow cytometry. A Becton Dickinson FACS Calibur flow cytometer (BD, USA) was used for these studies. The argon ion laser set at 488 nm was used as an excitation source. Cells with DNA content between 2n and 4n were designated as being in G1, S and G2/M phases of the cell cycle, as defined by the level of red fluorescence. […] The number of cells in each cell cycle compartment was expressed as a percentage of the total number of cells present. The results are shown in Table 3 and graphically presented in FIG. 3A (MCF-7 cell lines) and FIG. 3B (MDA-MB-231 cell lines).
Comparison of the effect of Compound A and PARP inhibitor BSI-201 (Iniparib developed by Sanofi-Aventis. BSI-201 is prepared in-house) on cell cycle progression and apoptosis was evaluated in two TNBC cell lines. The asynchronous human TNBC cell lines MDA-MB-231 and MDA-MB-468 were seeded in […] tissue culture flask at a density of 0.5×10^6 cells per flask in RPMI 1460 with 10% FCS. After 24 h, cells were treated either with 1.5 and 3.0 μM of Compound A or 50 μM of PARP inhibitor BSI-201 for 72 h. After the incubation cells were harvested (trypsinised) and processed as given in example 6.

## CN1CC[C@@H](c2c(O)cc(O)c3c(=O)cc(-c4ccccc4Cl)oc23)[C@@H]1CO.Cl [Compound A, (+)-trans-2-(2-Chloro-phenyl)-5,7-dihydroxy-8-(2-hydroxymethyl-1-methyl-pyrrolidin-3-yl)-chromen-4-one hydrochloride]
1.5 μM
  % apoptosis at 72 h: 36.09%
3 μM
  % apoptosis at 72 h: 62.5%
